Measured values: patent US8044079B2, “Substituted oxindole derivatives, medicaments containing said derivatives and use thereof” (Abbott GmbH & Co. KG, priority 2005, dated 2011)

Biological target: T1, human vasopressin V1b receptor (Homo sapiens, UniProt P47901)
T1 construct: expressed in transfected cells; host or cells: CHO-K1 (cell line hV1b_3H2_CHO), membrane preparation
T1 sequence (P47901 1-424): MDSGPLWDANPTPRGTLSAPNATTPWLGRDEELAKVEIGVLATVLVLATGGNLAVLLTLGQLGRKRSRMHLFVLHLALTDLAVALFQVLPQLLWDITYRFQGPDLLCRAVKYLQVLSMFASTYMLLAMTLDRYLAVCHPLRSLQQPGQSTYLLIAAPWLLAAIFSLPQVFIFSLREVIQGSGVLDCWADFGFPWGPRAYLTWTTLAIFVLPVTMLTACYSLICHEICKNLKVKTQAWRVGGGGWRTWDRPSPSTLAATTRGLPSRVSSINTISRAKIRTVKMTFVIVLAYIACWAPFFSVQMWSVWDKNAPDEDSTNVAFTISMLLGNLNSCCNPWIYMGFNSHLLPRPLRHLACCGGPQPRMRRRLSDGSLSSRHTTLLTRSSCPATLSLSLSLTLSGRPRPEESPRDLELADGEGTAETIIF
Assay: Vasopressin V1b receptor binding test
Settings: membranes of CHO-K1 cells with human V1b receptor, displacement of 1.5 nM 3H-AVP; for compounds with more than one stereogenic center the diastereomer with greater affinity
Summary of the method: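 Affinity constants (Ki) came from nonlinear regression of triplicate scintillation counts after filtration separated bound from free radioligand. Compounds competed at human V1b membranes for 60 min, room temperature, in pH 7.4 tris/MgCl2/BSA buffer with 2% DMSO; 1 μM AVP defined nonspecific binding.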

Ki [nM]	SMILES
< 10	CCNCc1ccc(OC)c(C2(N3CCC[C@@]3(C)c3ncco3)C(=O)N(S(=O)(=O)c3ccc(OC)cc3)c3ccc(Cl)cc32)c1 (stereo partly drawn) [Example 231, 5-Chloro-3-(5-ethylaminomethyl-2-methoxyphenyl)-1-(4-methoxybenzenesulfonyl)-3-((S)-2-methyl-2-oxazol-2-yl-pyrrolidin-1-yl)-1,3-dihydroindol-2-one]
< 10	CCN1CCN(Cc2ccc(OC)c(C3(N4CCC[C@@]4(C)c4ncco4)C(=O)N(S(=O)(=O)c4ccc(OC)cc4)c4ccc(Cl)cc43)c2)CC1 (stereo partly drawn) [Example 232, 5-Chloro-3-[5-(4-ethylpiperazin-1-ylmethyl)-2-methoxyphenyl]-1-(4-methoxybenzenesulfonyl)-3-((S)-2-methyl-2-oxazol-2-yl-pyrrolidin-1-yl)-1,3-dihydroindol-2-one]
10 to 100	COc1ccc(S(=O)(=O)N2C(=O)C(c3cc(CN4CCN(CCO)CC4)ccc3OC)(N3CCC[C@H]3c3ncc(C)o3)c3cc(Cl)ccc32)cc1 (stereo partly drawn) [Example 233, 5-Chloro-3-{5-[4-(2-hydroxyethyl)piperazin-1-ylmethyl]-2-methoxyphenyl}-1-(4-methoxybenzenesulfonyl)-3-[(S)-2-(5-methyloxazol-2-yl)-pyrrolidin-1-yl]-1,3-dihydroindol-2-one]
10 to 100	COc1ccc(S(=O)(=O)N2C(=O)C(c3cc(CN(C)C)ccc3OC)(N3CCC[C@H]3c3ncc(C)o3)c3cc(Cl)ccc32)cc1 (stereo partly drawn) [Example 234, 5-Chloro-3-(5-dimethylaminomethyl-2-methoxyphenyl)-1-(4-methoxybenzenesulfonyl)-3-[(S)-2-(5-methyloxazol-2-yl)-pyrrolidin-1-yl]-1,3-dihydroindol-2-one]
10 to 100	COc1ccc(S(=O)(=O)N2C(=O)C(c3cc(CN4CCN(C)CC4)ccc3OC)(N3CCC[C@H]3c3ncc(C)o3)c3cc(Cl)ccc32)cc1 (stereo partly drawn) [Example 235, 5-Chloro-1-(4-methoxybenzenesulfonyl)-3-[2-methoxy-5-(4-methylpiperazin-1-ylmethyl)phenyl]-3-[(S)-2-(5-methyloxazol-2-yl)-pyrrolidin-1-yl]-1,3-dihydroindol-2-one]
